The target of series [1] is T1, POP isolated from rat brain (Rattus norvegicus, UniProt O70196).
T1 construct: the resulting POP preparation was a homogeneous monomer with molecular weight of 75 kDa; from tissue; host or cells: rat brain
T1 sequence (O70196 1-710): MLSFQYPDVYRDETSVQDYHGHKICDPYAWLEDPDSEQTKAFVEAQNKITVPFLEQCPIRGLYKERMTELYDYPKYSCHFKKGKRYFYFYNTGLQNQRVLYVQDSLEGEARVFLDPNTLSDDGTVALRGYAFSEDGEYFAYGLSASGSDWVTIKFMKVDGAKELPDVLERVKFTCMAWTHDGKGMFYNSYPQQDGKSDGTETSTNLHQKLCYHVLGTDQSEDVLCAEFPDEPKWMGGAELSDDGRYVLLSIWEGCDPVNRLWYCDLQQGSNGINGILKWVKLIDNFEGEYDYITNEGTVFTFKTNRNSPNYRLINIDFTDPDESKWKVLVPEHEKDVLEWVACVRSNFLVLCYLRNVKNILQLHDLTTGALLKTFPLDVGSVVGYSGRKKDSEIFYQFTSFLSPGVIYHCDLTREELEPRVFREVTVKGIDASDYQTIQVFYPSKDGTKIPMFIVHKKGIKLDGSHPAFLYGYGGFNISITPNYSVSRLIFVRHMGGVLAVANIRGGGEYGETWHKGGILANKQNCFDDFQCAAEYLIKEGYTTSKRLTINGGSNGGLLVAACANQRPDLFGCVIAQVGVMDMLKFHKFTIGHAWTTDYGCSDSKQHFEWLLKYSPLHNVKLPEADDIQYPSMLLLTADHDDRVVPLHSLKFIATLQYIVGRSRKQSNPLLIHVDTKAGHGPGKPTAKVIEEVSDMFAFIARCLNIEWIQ
Put plainly: POP inhibition assay (release of AMC from Cbz-Ala-Pro-AMC). The series is classed as biochemical. The conditions noted are these: substrate Cbz-Ala-Pro-AMC 20 μM, 30 min at 37°C, pH 7.5, read-out: IC50, POP inhibitory activity. On the procedure: Briefly, rat brain homogenate was precipitated with ammonium sulfate, followed by ion exchange chromatography on DEAE-Sephadex A-50, gel chromatography on Sephadex G-75, and high-performance liquid chromatography on a MonoQ column using FPLC. […] Purified POP was concentrated by ultrafiltration and stored at −80°C.
The reaction was initiated by addition of the substrate (20 μM) in a final reaction volume of 2 ml. The incubation mixture consisted of 50 μl of the enzyme preparation in 20 mM Tris-HCl buffer (pH 7.5) with 1 mM EDTA, 1 mM dithiothreitol, and 0.1% NP–40; 50 μl of 1 mg/ml substrate solution in DMSO; and 1.9 ml of Tris-HCl buffer. […] After a 30-min incubation at 37°C, the reaction was stopped by addition of 1 ml of acetate buffer (pH 4.0). The AMC concentration was determined on an LS–5B spectrofluorometer (Perkin–Elmer, United States) with excitation and emission wavelengths of 380 and 460 nm, respectively.

The nature of series [2]: Tissue concentration of CbzMetPrdN in the brain after single i.p. administration. The series is classed as in vivo. Conditions: single i.p. 20 mg/kg. On the procedure: (§1) The total drug concentrations for CbzMetPrdN and POP activity in the brain were determined as a function of time at 0, 20, 40, 60, 80, and 120 min (n = 3 for each time-point) after a single 20 mg/kg intraperitoneal (i.p.) administration of CbzMetPrdN. The test animals were sacrificed, and their brains were harvested and immediately homogenized in phosphate buffer saline.
For measurement of the brain tissue concentration of CbzMetPrdN, the homogenate was mixed with an equal volume of methanol and centrifuged at 3,000 g for 10 min. The supernatant was concentrated to 2 ml, followed by solid phase extraction in a Retain AX SPE cartridge (Thermo Fisher Scientific). The cartridge was washed with 1 ml of 5% ammonia solution and then with 1 ml of methanol. The sample was eluted with 1 ml of 2% trifluoroacetic acid in methanol and analyzed using a Gilson 41 HPLC system (Gilson, United Kingdom) with a 125 × 4 mm Nucleosil C18 column (Macherey-Nagel). The column was washed for 3 min with 4 mM hexanesulfonate in water (pH 3.5), followed by a 0–100% gradient of 4 mM hexanesulfonate in acetonitrile:water (50:50) % (v/v) over 10 min. The concentration of the POP inhibitor is expressed in ng of CbzMetPrdN per mg of brain protein.

A further series deals with T2, POP (Rattus norvegicus, UniProt O70196).
T2 construct: from tissue; host or cells: brain homogenate of rats dosed i.p. with CbzMetPrdN
T2 sequence (O70196 1-710): T1 sequence (O70196 1-710)
The series can be described thus: POP activity in brain tissue homogenate after single i.p. administration. The series is classed as in vivo. The method, then: as §1
POP activity in the brain tissue homogenate was measured using Cbz-Ala-Pro-AMC, as described above, and is presented as nmole AMC released/min/mg of brain protein. Protein concentrations of the supernatants were determined with a Bio-Rad protein assay kit.

The subject of series [3] is scopolamine-induced amnesia. Put plainly: Scopolamine-induced amnesia of conditioned passive avoidance reflex (CPAR). It counts as in vivo, rat. Conditions: for CPAR retention time, scopolamine-induced amnesia: doses 1 and 2 mg/kg i.p., vs scopolamine only. The method, then: (§2) The development of CPAR was performed on a standard passive avoidance device from Lafayette Instrument Co. (United States). The device consists of a small platform located at a distance of 1 m from the floor, illuminated by a special lamp, and a dark chamber with an electrode floor. During learning, a rat was placed on the small platform in front of the entrance to the dark chamber. Immediately after entering the dark chamber, the rat received a painful stimulation from an electric current of 0.6 mA through the electrode floor lasting 10 s or until the rat ran out of the chamber (learning). […] If the rat entered the dark chamber, the training was repeated. A test for the refiex reproduction was performed after 24 h. In this case, the rat was placed on a lighted area, and step-through latency time (STL) of its entry into the dark chamber was recorded. The observation time was 3 min. The criterion for refiex reproduction was considered to be the STL of entry into the dark box.
Experiments were performed using two rat models of amnesia. In the first model, effects of POP inhibitors on scopolamine-induced amnesia were studied. The series included eighteen groups of animals (137 rats). Rats in the negative control group (group 1, n = 8) received 2 ml of vehicle (physiological saline solution containing 1% Tween 80) i.p. 40 min before the CPAR learning. Rats in the non-treated group (group 2, n = 7) received scopolamine (1 mg/kg, i.p. in 2 ml of vehicle) 20 min before the CPAR learning. […].

A further series deals with MES-induced amnesia. Put plainly: MES-induced amnesia of conditioned passive avoidance reflex (CPAR). The series is classed as in vivo. Conditions: rat; for Antiamnesic activity, MES-induced amnesia, 1 mg/kg: comparable with piracetam 300 mg/kg; for Antiamnesic activity, MES-induced amnesia, 1 and 2 mg/kg: doses of 1 and 2 mg/kg; for Potency in comparison with piracetam, MES-induced amnesia: vs piracetam 300 mg/kg. On the procedure: as §2
In the second model, effects of POP inhibitors on MES-induced amnesia were studied. The series included fifteen groups of animals (110 rats). Rats in the negative control group (group 1, n = 8) received 2 ml of vehicle (physiological saline solution containing 1% Tween 80) i.p. 30 min before the CPAR learning. Rats in the positive control group (group 2, n = 7) received MES just after CPAR learning. MES was induced using an electric shock generator from Harvard Apparatus (Holliston, MA, United States) consisting of a current (250 V, 120–122 20 mA, delivered for 0.1 s) by way of corneal electrodes. Rats of groups 3–14 received a single injection of POP inhibitor at doses of 0.5, 1, and 2 mg/kg, including BocTrpPrdN (groups 3–5, n = 7 in each), BocGlyPrdN (groups 6–8, n = 6 in each), CbzMetPrdN (groups 9–11, n = 8 in each), and CbzGlnPrdN (groups 12–14, n = 8 in each) 40 min prior to the CPAR learning (three groups of animals for each inhibitor) with following MES just after CPAR learning. Rats in group 15 (n = 8) received piracetam (300 mg/kg, i.p.) 50 min before the CPAR learning and MES just after CPAR learning.

For series [4], the system named is dipeptidyl peptidase IV (DPP-4). On the set-up: method as in Ivanova et al., 2020. The conditions noted are these: ref Ivanova et al., 2020; cited from earlier work.
Series [5] relates to MPTP-induced Parkinsonian syndrome. The arrangement: method as in earlier work. Conditions: ref Khlebnikova et al., 2009b, Krupina et al., Khlebnikova et al., 2012, 2013a, 2013b, Kalinina et al., 2019; cited from earlier work.
On the set-up of series [6]: method as in Jalkanen et al., 2011a; Jalkanen et al., 2014. The conditions noted are these: mouse and rat, ref Jalkanen et al., 2011a, 2014; cited from earlier work.

“And” between values parts separate entries of the source, which are not always exact repeats. Identical values can stand only once.

Consider 7 compounds from article PMC8727363, “Therapeutic Effect of Novel Cyanopyrrolidine-Based Prolyl Oligopeptidase Inhibitors in Rat Models of Amnesia” (Frontiers in Chemistry, 2021).

In general, IC50 refers to the concentration at which inhibition is half-maximal.

As to `CSCC[C@H](NC(=O)OCc1ccccc1)C(=O)N1CCC[C@H]1C#N` [CbzMetPrdN, N-Benzyloxycarbonyl-L-methionyl-(2S)-pyrrolidine-2-carbonitrile], the IC50 in series [1] is 2.1 ± 0.6 nM. In addition, the “Time point with maximal concentration in the brain” value in series [2] (rat) turned out to be 60 min. The “Accumulation in rat brain tissue” value in series [2] (0-120 min) is on record as “accumulated in the brain”. Moreover, at POP (administered intraperitoneally), the “Inhibition of POP in the brain” value was “effectively inhibits POP in the brain”. Further, the “Time of maximal inhibition of brain POP activity” value on POP (single i.p. 20 mg/kg) turned out to be 60 min. Further, in series [3] (rat, scopolamine 1 mg/kg), the “CPAR retention time, scopolamine-induced amnesia” value (shortened to “CPAR retention time”) is given as “significantly prolonged CPAR retention time”. Also, in the series on MES-induced amnesia, the “Antiamnesic activity, MES-induced amnesia, 1 mg/kg” value was “potent antiamnesic activity”. In addition, in series [4], the “Inhibition of DPP-4 activity” value is given as “inhibited activity”. Besides, the “Effect in preclinical model of Parkinsonian syndrome (MPTP)” value in series [5] was “exhibited neuroprotective activity and abolished depressive symptoms”.
In the case of `C[C@H](NC(=O)OCc1ccccc1)C(=O)N1CCC[C@H]1C#N` [CbzAlaPrdN, N-benzoxycarbonyl-L-alanyl-(2S)-pyrrolidine-2-carbonitrile], in series [3] (rat, 0.5, 1 and 2 mg/kg i.p., scopolamine 1 mg/kg), the “Antiamnesic effect, scopolamine-induced amnesia, all doses” value was “not effective”.
Regarding `N#C[C@@H]1CCCN1C(=O)[C@H](CCC(N)=O)NC(=O)OCc1ccccc1` [CbzGlnPrdN, N-Benzyloxycarbonyl-L-glutaminyl-(2S)-pyrrolidine-2-carbonitrile], in series [1], the IC50 was ~2 nM and 2 nM. In addition, the “CPAR retention time” value in series [3] (rat, scopolamine 1 mg/kg) is “significantly prolonged CPAR retention time”. The “Antiamnesic activity, MES-induced amnesia, 1 mg/kg” value with MES-induced amnesia was “potent antiamnesic activity”.
Regarding `CC(C)(C)OC(=O)N[C@@H](Cc1c[nH]c2ccccc12)C(=O)N1CCC[C@H]1C#N` [BocTrpPrdN, N-(tert-butoxycarbonyl)-L-tryptophanyl-(2S)-pyrrolidine-2-carbonitrile], the IC50 in series [1] came to 9 ± 0.9 nM. Also, in series [3] (rat, 0.5-2 mg/kg i.p., scopolamine 1 mg/kg), the “Antiamnesic activity, scopolamine-induced amnesia (overall)” value is listed as “clear tendency toward antiamnesic activity”. Further, in the series on MES-induced amnesia, the “Antiamnesic activity, MES-induced amnesia, 1 and 2 mg/kg” value is listed as “exhibited antiamnesic activity”; the “Potency in comparison with piracetam, MES-induced amnesia” value was “less potent”.
As for `CC(C)(C)OC(=O)NCC(=O)N1CCC[C@H]1C#N` [BocGlyPrdN, N-(tert-butoxycarbonyl)glycyl-(2S)-pyrrolidine-2-carbonitrile], in series [1], the IC50 was determined as 12 ± 3 nM. In addition, the “CPAR retention time” value in series [3] (rat, scopolamine 1 mg/kg) is listed as “significantly prolonged CPAR retention time”. In the series on MES-induced amnesia, the “Antiamnesic activity, MES-induced amnesia, 1 and 2 mg/kg” value is “exhibited antiamnesic activity”; the “Potency in comparison with piracetam, MES-induced amnesia” value is “less potent”.
Turning to `N#C[C@@H]1CCCN1C(=O)[C@@H]1CCCN1C(=O)CCCc1ccccc1` [KYP-2047, (2S)-1-[[(2S)-1-(1-oxo-4-phenylbutyl)-2-pyrrolidinyl]carbonyl]-2-pyrrolidinecarbonitrile], the Brain penetration result in series [6] was “penetrates mouse and rat brains”.
Regarding `CN1[C@@H]2C[C@@H](OC(=O)[C@H](CO)c3ccccc3)C[C@H]1[C@@H]1O[C@@H]12` [scopolamine, reference compound], the “Latency period (STL) in CPAR test” value in series [3] (rat, scopolamine 1 mg/kg i.p. 20 min before learning, vehicle-treated rats 145.0 ± 21.7 s) is 23.5 ± 9.6 s.
